Data from patent US20090004287A1, “Disinfectant formulations containing quaternary ammonium compounds and hydrogen peroxide” (priority 2007, published 2009).

Legend:
[1] = Hydrogen peroxide stability in the presence of didecyldimethylammonium bicarbonate/carbonate; format: physicochemical
Excerpt: Hydrogen Peroxide Stability in the Presence of Didecyldimethylammonium Bicarbonate/-Carbonate

P. aeruginosa = assay: Efficacy against P. aeruginosa dried on microplate wells (growth/no growth, 4 replicates); format: cell-based; conditions: 5% fetal bovine serum; for Positive cells out of a total of 4 after 5 min: contact time 5 min, diluted in water of 400 ppm hardness, positive = ineffective disinfection; for Positive cells out of a total of 4 after 10 min: contact time 10 min; for Positive cells out of a total of 4 after 10 min / Positive cells out of a total of 4 after 11 min / Positive cells out of a total of 4 after 13 min / Positive cells out of a total of 4 after 16 min / Positive cells out of a total of 4 after 20 min / Positive cells out of a total of 4 after 21 min / Positive cells out of a total of 4 after 25 min: water of 400 ppm hardness; for Positive cells out of a total of 4 after 11 min: contact time 11 min; for Positive cells out of a total of 4 after 13 min: contact time 13 min; for Positive cells out of a total of 4 after 16 min: contact time 16 min; for Positive cells out of a total of 4 after 20 min: contact time 20 min; for Positive cells out of a total of 4 after 21 min: contact time 21 min; for Positive cells out of a total of 4 after 25 min: contact time 25 min
Protocol: All solutions were diluted in water of 400 ppm hardness and all concentrations were expressed in ppm. Each of the solutions was tested in 4 replicates as described below. The numbers in Table 2 below indicate the number of “positive” cells or ineffective disinfection of 4 replicates. Various contact times noted on the tables were evaluated.
Flat bottom microplate wells were inoculated with 15 μL each of a suspension of 10% P. aeruginosa+5% fetal bovine serum in a saline solution, 4.5×10^7 cfu/mL using a Quadra Tower 400 Series High Throughput apparatus (Tomtec Inc., Hamden, Conn.). The plates were dried with cover open for 40 minutes at 36° C. Then, 120 μL of each test substance was transferred from the deep-well block to the test wells. The test organisms were exposed to the test substance for different contact times, after which the substances were removed with the Quadra and 150 μL of modified AOAC Letheen neutralizer+0.5% Na thiosulfate/growth broth was added to each well. The microplates were incubated at 36° C. for 24 hours and scored for growth/no growth.

Row | Compound | % Hydrogen Peroxide Concentration at Time/Temperature: 1 Month/40° C. ([1]; 1 month, 40° C.) | % Hydrogen Peroxide Concentration at Time/Temperature: 1 Month/RT ([1]; 1 month, room temperature) | % Hydrogen Peroxide Concentration at Time/Temperature: 1 Week/40° C. ([1]; 1 week, 40° C.) | % Hydrogen Peroxide Concentration at Time/Temperature: 1 Week/RT ([1]; 1 week, room temperature) | % Hydrogen Peroxide Concentration at Time/Temperature: Initial ([1]; Initial, by weight, analytical accuracy ±3% relative) | Positive cells out of a total of 4 after 5 min (P. aeruginosa) | Positive cells out of a total of 4 after 10 min (P. aeruginosa) | Positive cells out of a total of 4 after 11 min (P. aeruginosa) | Positive cells out of a total of 4 after 13 min (P. aeruginosa) | Positive cells out of a total of 4 after 16 min (P. aeruginosa) | Positive cells out of a total of 4 after 20 min (P. aeruginosa) | Positive cells out of a total of 4 after 21 min (P. aeruginosa) | Positive cells out of a total of 4 after 25 min (P. aeruginosa)
1 | OO [3.0% H2O2, hydrogen peroxide] | 1.82% | 2.85% | 2.74% | 2.99% | 3.11% | – | – | – | – | – | – | – | –
2 | OO [H2O2 2,000 ppm, hydrogen peroxide] | – | – | – | – | – | 0 | 0 | 0 | 0 | 0 | 0 | 0 | 0
3 | OO [H2O2 600 ppm, hydrogen peroxide] | – | – | – | – | – | 4 | 4 | 2 | 0 | 0 | 0 | 0 | 0
4 | didecyldimethylammonium carbonate/bicarbonate [Quat 500 ppm] | – | – | – | – | – | 4 | 4 | 4 | 4 | 1 | 0 | 1 | 0
